Laboratory results from patent US20220257758A1, “METHODS OF ADMINISTERING ANTI-SIGLEC-8 ANTIBODIES AND CORTICOSTEROIDS” (priority 2019, published 2022).
Entries after “also recorded” stand apart in the source; their conditions may differ.

How the values were obtained:
Assay type in all cases: in vivo, human
[1] = tested on: eosinophils per HPF observed in GI biopsies; experiment: Phase 2 study in EG and/or EGE: change in eosinophils per HPF in GI biopsies
Source text: (§1) This study was a randomized, double-blind, placebo-controlled study. […] All patients reported an average weekly score of ≥3 (on a scale from 0-10), recorded for either abdominal pain, diarrhea and/or nausea on a Patient Reported Outcome (PRO) questionnaire during at least 2 out of 3 weeks of PRO collection. A minimum of four questionnaires were completed each qualifying week.
Further, all patients either failed or had disease symptoms not adequately controlled by standard-of-care treatments for EG/EGE symptoms, which could include proton pump inhibitors (PPIs), systemic or topical corticosteroids, and/or diet, among others.
In addition, each patient was confirmed to have EG and/or EGE by esophagogastroduodenoscopy (EGD), as defined by eosinophilia of the gastric mucosa ([…] eosinophils/HPF in 5 HPFs) and/or eosinophilia of the duodenal mucosa (30 eosinophils/HPF in 3 HPFs) from the EGD performed during the screening period, without any other cause for the gastric eosinophilia (e.g., parasitic or other infection or malignancy). For more details, see ClinicalTrials.gov Identifier NCT03496571.
(§2) 65 patients were enrolled in 3 arms. In the first arm, 22 patients received anti-Siglec-8 antibody (non-fucosylated IgG1 antibody HEKA) in the following doses: 0.3 mg/kg for first dose, and 1.0 mg/kg for second, third, and fourth doses (“low dose”). In the second arm, 22 patients received the anti-Siglec-8 antibody in the following doses: 0.3 mg/kg for first dose, 1.0 mg/kg for second dose, and 3.0 mg/kg for the third and fourth doses (“high dose”). Patients in the third arm received placebo. All doses were provided monthly.
The primary endpoint was the percentage of change in eosinophils per HPF observed in GI biopsies before and after receiving treatment or placebo. Mean percent change in eosinophil counts was calculated by comparing count at week 14 of treatment versus baseline count.

[2] = tested on: patients with eosinophilic gastritis (EG) and/or eosinophilic gastroenteritis (EGE); experiment: Phase 2 study in EG and/or EGE: Total Symptom Score (TSS) from PRO questionnaire
Source text: as §1, §2
(§3) Secondary endpoints included the percentage of responders to treatment and change in symptoms as reported by PRO questionnaire (both comparing week 13-14 vs. baseline), as well as an exploratory assessment of comorbid eosinophilic esophagitis (EoE). Symptoms reported by the PRO questionnaire included abdominal pain, nausea, diarrhea, vomiting, fullness before finishing a meal, loss of appetite, abdominal cramping, and bloating. Each of the 8 symptoms was measured on a scale from 0 to 10 (with 80 total points possible). This questionnaire captured the most significant symptoms of EG/EGE. Treatment responder was defined as >75% reduction in tissue biopsy eosinophil counts and >30% reduction in Total Symptom Score (TSS) from the PRO questionnaire at weeks 13-14. These endpoints were designed to show (1) tissue eosinophil depletion, (2) symptom improvement, and (3) that these effects occurred in the same individuals.

[3] = tested on: patients with eosinophilic gastritis (EG) and/or eosinophilic gastroenteritis (EGE); experiment: Phase 2 study in EG and/or EGE: treatment responders
Procedure: as §2, §3

[4] = tested on: patients with eosinophilic esophagitis (EoE); experiment: Phase 2 study: exploratory assessment of comorbid eosinophilic esophagitis (EoE)
Procedure: as §2
as §3, with “These endpoints were designed to show (1) tissue eosinophil depletion, (2) symptom improvement, and (3) that these effects occurred in the same individuals.” left out

[5] = tested on: patients with eosinophilic gastritis (EG) and/or eosinophilic gastroenteritis (EGE); experiment: Phase 2 study in EG and/or EGE: safety and tolerability
Source text: This Example describes results from a Phase 2 examining treatment of patients with eosinophilic gastritis (EG) and/or eosinophilic gastroenteritis (EGE) using a humanized, non-fucosylated IgG1 monoclonal anti-Siglec-8 antibody (HEKA). Specifically, this study evaluated the safety and tolerability of anti-Siglec-8 antibody in patients with EG and/or EGE.
as §2

[6] = tested on: patients with eosinophilic gastritis (EG) and/or eosinophilic gastroenteritis (EGE); experiment: Phase 2 open-label extension study: infusion-related reactions with corticosteroid premedication; details: 58 patients to date; 80 mg oral prednisone 12-24 hours prior to first infusion, plus solumedrol, cetirizine, acetaminophen about 1 hour prior; 1 mg/kg first infusion then 3 mg/kg every 4 weeks
Procedure: Approximately 60 patients are enrolled in this extension study, based on the maximum enrollment from a Phase 2 study. Patients who complete the Phase 2 study have the option to receive anti-Siglec-8 antibody in an open-label fashion.
1 mg/kg anti-Siglec-8 antibody (non-fucosylated IgG1 antibody HEKA) is administered for the first infusion, followed by a dose of 3 mg/kg administered every 4 weeks thereafter. Patients receive up to 8 infusions of anti-Siglec-8 antibody administered every 28(±3) days.
Prior to the first infusion of AK002, 80 mg oral prednisone is given 12-24 hours prior to infusions and solumedrol (100 mg IV), cetirizine (10 mg oral), and acetaminophen (975-1000 mg oral) are given about 1 hour prior to infusion.
In this ongoing extension study, corticosteroid has been administered 12-24 hours prior to each of the first anti-Siglec-8 antibody dose (as described above).

**Q.** What does the source list for “anti-Siglec-8 antibody: humanized, non-fucosylated IgG1 monoclonal anti-Siglec-8 antibody (HEKA); VH SEQ ID NO: 6, VL SEQ ID NO: 16; heavy chain SEQ ID NO: 75, light chain SEQ ID NO: 76”?
**A.** patients with gastric and duodenal eosinophil counts of <30/HPF ([1]; 37 out of 39 patients receiving antibody): 95%; mean reduction in eosinophil count ([1]; both treatment groups, baseline to weeks 13-14, p-value <0.0001): 95%; reduction in eosinophil count ([1]; high dose arm (0.3, 1.0, 3.0, 3.0 mg/kg monthly), baseline to weeks 13-14): 97%; reduction in eosinophil count ([1]; low dose arm (0.3, 1.0, 1.0, 1.0 mg/kg monthly), baseline to weeks 13-14): 95%; improvement across symptoms of the PRO questionnaire ([2]; 8 symptoms, baseline to end of treatment): improvement across all symptoms measured; also recorded: Improvements were observed across all symptoms; mean reduction in TSS ([2]; both treatment groups, baseline to weeks 13-14, p-value 0.0012): 54%; reduction in TSS ([2]; high dose arm, baseline to weeks 13-14): 58%; reduction in TSS ([2]; low dose arm, baseline to weeks 13-14): 49%; improvements in symptoms ([2]; on day 1 after the first infusion and maintained throughout the study): statistically significant improvements in symptoms; percentage of responders ([3]; all treated patients, >75% reduction in tissue eosinophils and >30% reduction in TSS at weeks 13-14, p-value 0.0008): 69%; percentage of responders ([3]; high dose arm, weeks 13-14): 70%; percentage of responders ([3]; low dose arm, weeks 13-14): 68%; improvement in dysphagia ([4]; patients with EoE): substantial improvement in dysphagia; EoE patients showing <5 eosinophils per HPF ([4]; week 14 of treatment, 13 of 14 EoE patients): 93%; other significant AEs ([5]; Phase 2 study): no other significant adverse events (AEs) were observed; tolerability ([5]; Phase 2 study): generally well tolerated; IRRs that were mild to moderate ([5]; e.g. flushing, feeling of warmth, headache, nausea, dizziness): 95%; patients with at least 1 treatment-emergent adverse event (AE) ([5]; patients receiving antibody): 91%; drug-related serious AE (number) ([5]; was an IRR, patient recovered within 24 hours with no further sequelae): One; IRRs observed [6]: no IRRs have been observed
